Experimental data: patent US6589950B1, “Purine derivatives inhibitors of tyrosine protein kinase SYK” (Novartis AG, priority 1999, dated 2003)
Counter-ions that a name gives are not always drawn.

Key:
syk kinase = syk kinase (Homo sapiens, UniProt P43405); assay: syk kinase peptide phosphorylation scintillation proximity assay (SPA); format: biochemical; details: biotin-EDPDYEWPSA substrate, 33P-ATP, SPA beads, room temperature 30 minutes; read-out: IC50 (concentration at which 50% inhibition of syk kinase phosphorylation occurs)
Excerpt: Compounds of formula I in free or salt form are useful as pharmaceuticals. Accordingly the invention also provides a compound of formula I in free or pharmaceutically acceptable salt form for use as a pharmaceutical. The compounds of formula I in free or pharmaceutically acceptable salt form, hereinafter referred to alternatively as “agents of the invention”, inhibit the activity of the tyrosine protein kinase syk, which is an activator of pro-inflammatory cells driving an allergic response.
In this assay the effect of an agent of the invention on the phosphorylation of a peptide by syk kinase is determined. The phosphate is transferred from the terminal phosphate of adenosine triphosphate (ATP) to the biotin-modified peptide biotin-EDPDYEWPSA (available from Genosys) which is a known specific substrate for syk. When ^33P-phosphorylated peptide binds to streptavidin-polyvinyltoluene (PVT) Scintillation Proximity Assay (SPA) beads (available from Amersham), the emitted β-particles excite the fluorophore in the beads and produce light.
To the wells of an Optiplate (Canberra Packard) are added (i) the compound under test in DMSO/distilled water (10 μl), (ii) 20 μl of a composition formed by mixing 1 mM biotin-EDPDYEWPSA (5.5 μl), 300 μM ATP (18.3 μl), and ^33P-ATP in sufficient amount to add 0.1 μCi ^33P-ATP per well (1.1 μl on the day of production) and making up the volume to 2.2 ml with a buffer (Buffer A) prepared by dissolving tris-base (0.36 g) in distilled water (80 ml), adjusting the pH to 7.5 with 1M hydrochloric acid, adding 1M aqueous MgCl2 (1.5 ml), 50 mM aqueous sodium orthovanadate (30 μl) and 1M aqueous dithiothrietol (150 μl), and making the volume up to 120 ml with distilled water, (iii) 0.5% w/v syk kinase in Buffer A (20 μl). The plate is incubated at room temperature for 30 minutes with shaking, the reaction is then terminated by addition to all wells of 150 μl of a mixture prepared by reconstituting 500 mg Streptavidin-PVT SPA beads in 373 ml of Tris-buffered saline containing 673.6 g cesium chloride, 20 ml 0.5M EDTA and 27.5 mg ATP (disodium salt) per litre. The plate is again incubated at room temperature for 30 minutes with shaking, then sealed using Top Seal-S (Canberra Packard) according to the manufacturer's instructions and left to stand at room temperature for 1 hour. The resulting scintillations are counted using a Packard TopCount, each well being counted for 1 minute.
The procedure is repeated for different concentrations of test compound selected to cover the range of 0% to 100% inhibition and the concentration at which 50% inhibition of syk kinase phosphorylation occurs (IC50) for each compound is determined from concentration-inhibition curves in a conventional manner.

| Structure (SMILES) | melting point [°C] | IC50 (syk kinase) [nM] |
| --- | --- | --- |
| CC(=O)N(C)c1ccc(Nc2nc(NC3CCC3)c3nc[nH]c3n2)cc1 (as salt: HCl) [Example 6] | 314 to 318 |  |
| CC(C)(C)OC(=O)Nc1ccc(Nc2nc(NC3CC3)c3nc[nH]c3n2)cc1 [Example 3] |  | 5 |
| c1nc2c(NC3CC3)nc(Nc3ccc(N4CCOCC4)cc3)nc2[nH]1 [Example 5] | 201.9 to 203.7 | 9 |
| CC(=O)N(C)c1ccc(Nc2nc(NC3CCC3)c3nc[nH]c3n2)cc1 [Example 6] |  | 10 |
| CN1CCN(c2ccc(Nc3nc(NC4CC4)c4nc[nH]c4n3)cc2)CC1 [Example 102] |  | 5 |
| CC(=O)N1CCN(c2ccc(Nc3nc(NC4CC4)c4nc[nH]c4n3)cc2)CC1 [Example 103] |  | 2 |
| CC(=O)N1CCN(c2ccc(Nc3nc(NC4CCC4)c4nc[nH]c4n3)cc2)CC1 [Example 104] |  | 3.6 |
| c1ccc(Nc2nc(NC3CCC3)c3[nH]cnc3n2)cc1 [Example 121, 6-Cyclobutylamino-2-anilinopurine] | 312 to 314 |  |
| CC(=O)N(C)c1ccc(Nc2nc(NC(C)(C)C)c3nc[nH]c3n2)cc1 [Example 138] | 273 to 274 | 14 |
| CCN(C(C)=O)c1ccc(Nc2nc(NC(C)C)c3nc[nH]c3n2)cc1 [Example 170] |  | 10 |
